Experimental data as given in US6355799B1, “Substituted benzene compounds, process for their preparation, and herbicidal and defoliant compositions containing them” (ISK Americas Incorporated, priority 1997, dated 2002).

How the values were obtained:
Assay type in all cases: in vivo
[1] = system: field corn (Zea mays L., var. Dekalb 535, CORN); assay: Post-emerge test, crop safety; details: post-emerge, 14 days after application, rating scale 0-100
Outline: (§1)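 Sandy loam pots; pre-emerge: sown 1 d pre-spray, surface-watered after, then bottom-watered. Post-emerge: sown 8–21 d before, 2–3 leaf stage, + 0.25% v/v NIS, bottom-watered. Acetone, 187 l/ha track spray, 15–1000 g ai/ha. 0–100 injury score, day 14.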

[2] = system: upland rice (Oryza sp., var. Tebonnet, RICE); assay: Post-emerge test, crop safety; details: post-emerge, 14 days after application, rating scale 0-100
Outline: as §1

[3] = system: johnsongrass (Sorghum halepense, SORHA); assay: Pre-emerge test, greenhouse herbicide activity screening; details: rated 14 days after application, 0 = no damage, 100 = complete death
Outline: as §1

[4] = system: large crabgrass (Digitaria sanguinalis, DIGSA); assay: as above; details: rated 14 days after application, 0 = no damage, 100 = complete death
Outline: as §1

[5] = system: ivyleaf morningglory (Ipomoea hederacea, IPOHE); assay: as above; details: rated 14 days after application, 0 = no damage, 100 = complete death
Outline: as §1

[6] = system: barnyardgrass (Echinochloa crus-galli, ECHCG); assay: as above; details: rated 14 days after application, 0 = no damage, 100 = complete death
Outline: as §1

[7] = system: sicklepod (Cassia obtusifolia, CASOB); assay: as above; details: rated 14 days after application, 0 = no damage, 100 = complete death
Outline: as §1

[8] = system: green foxtail (Setaria viridis, SETVI); assay: as above; details: rated 14 days after application, 0 = no damage, 100 = complete death
Outline: as §1

[9] = system: velvetleaf (Abutilon theophrasti, ABUTH); assay: as above; details: rated 14 days after application, 0 = no damage, 100 = complete death
Outline: as §1

[10] = system: lambsquarters (Chenopodium album, CHEAL); assay: as above; details: rated 14 days after application, 0 = no damage, 100 = complete death
Outline: as §1

[11] = system: common ragweed (Ambrosia artemisizfolia L., AMBEL); assay: as above; details: rated 14 days after application, 0 = no damage, 100 = complete death
Outline: as §1

[12] = system: field corn (Zea mays L., var. Dekalb 535, CORN); assay: Pre-emerge test, crop safety; details: rated 14 days after application, 0 = no damage, 100 = complete death
Outline: (§2)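 Herbicidal damage is scored 0 (none) to 100 (complete plant death) two weeks after a simulated field spray. Rates span 15–1000 g ai/ha, delivered in acetone at 187 l/ha. For post-emergence treatments, plants have 2–3 leaves and the spray carries 0.25% v/v non-ionic surfactant.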

[13] = system: upland rice (Oryza sp., var. Tebonnet, RICE); assay: Pre-emerge test, crop safety; details: rated 14 days after application, 0 = no damage, 100 = complete death
Outline: as §2

[14] = system: redroot pigweed (Amaranthus retroflexus, AMARE); assay: Pre-emerge test, greenhouse herbicide activity screening; details: rated 14 days after application, 0 = no damage, 100 = complete death
Outline: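 Visual ratings on a 0-100 scale (0 no damage, 100 all plants dead) were taken at 14 days after treatment. Rates of 15-1000 g ai/ha in acetone, 187 l/ha, were sprayed onto soil one day after planting (pre-emerge) or onto 2-3 leaf plants with 0.25% v/v surfactant (post-emerge).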

[15] = system: johnsongrass (Sorghum halepense, SORHA); assay: Post-emerge test, greenhouse herbicide activity screening; details: post-emerge, 14 days after application, rating scale 0-100
Outline: (§3)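 Fourteen days after spraying, crop and weed injury was graded visually from 0, no effect, to 100, every plant dead. Test substances were dissolved in acetone and applied at 15–1000 g ai/ha with a flat-fan nozzle. Application was either pre-emergence, one day after sowing, or post-emergence at the 2–3 leaf stage.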

[16] = system: redroot pigweed (Amaranthus retroflexus, AMARE); assay: as above; details: post-emerge, 14 days after application, rating scale 0-100
Outline: as §3

[17] = system: large crabgrass (Digitaria sanguinalis, DIGSA); assay: as above; details: post-emerge, 14 days after application, rating scale 0-100
Outline: as §3

[18] = system: ivyleaf morningglory (Ipomoea hederacea, IPOHE); assay: as above; details: post-emerge, 14 days after application, rating scale 0-100
Outline: as §3

[19] = system: barnyardgrass (Echinochloa crus-galli, ECHCG); assay: as above; details: post-emerge, 14 days after application, rating scale 0-100
Outline: as §3

[20] = system: sicklepod (Cassia obtusifolia, CASOB); assay: as above; details: post-emerge, 14 days after application, rating scale 0-100
Outline: as §3

[21] = system: green foxtail (Setaria viridis, SETVI); assay: as above; details: post-emerge, 14 days after application, rating scale 0-100
Outline: as §3

[22] = system: velvetleaf (Abutilon theophrasti, ABUTH); assay: as above; details: post-emerge, 14 days after application, rating scale 0-100
Outline: as §3

[23] = system: lambsquarters (Chenopodium album, CHEAL); assay: as above; details: post-emerge, 14 days after application, rating scale 0-100
Outline: as §3

[24] = system: common ragweed (Ambrosia artemisizfolia L., AMBEL); assay: as above; details: post-emerge, 14 days after application, rating scale 0-100
Outline: as §3

COc1c(Cl)cc(F)c(-n2c(=O)cc(C(F)(F)F)n(C)c2=O)c1NC(=O)c1ccc(Br)cc1 [2-61]
75: Pre-emerge phytotoxicity rating (0-100), crop damage, RICE ([13]; 63 g ai/ha)
85: Pre-emerge Herbicidal Activity, phytotoxicity rating (0-100), ECHCG ([6]; 63 g ai/ha)
70: phytotoxicity rating SORHA ([15]; 250 g ai/ha) | phytotoxicity rating ECHCG ([19]; 250 g ai/ha)
50: phytotoxicity rating DIGSA ([17]; 250 g ai/ha)
35: phytotoxicity rating CORN ([1]; 63 g ai/ha)
10: Pre-emerge Herbicidal Activity, phytotoxicity rating (0-100), SETVI ([8]; 63 g ai/ha) | Pre-emerge phytotoxicity rating (0-100), crop damage, CORN ([12]; 63 g ai/ha)
80: Pre-emerge Herbicidal Activity, phytotoxicity rating (0-100), SORHA ([3]; 63 g ai/ha) | Pre-emerge Herbicidal Activity, phytotoxicity rating (0-100), AMBEL ([11]; 63 g ai/ha)
90: phytotoxicity rating CORN ([1]; 250 g ai/ha) | phytotoxicity rating RICE ([2]; 250 g ai/ha) | Pre-emerge Herbicidal Activity, phytotoxicity rating (0-100), DIGSA ([4]; 63 g ai/ha) | Pre-emerge Herbicidal Activity, phytotoxicity rating (0-100), IPOHE ([5]; 63 g ai/ha) | phytotoxicity rating SETVI ([21]; 250 g ai/ha)
40: Pre-emerge Herbicidal Activity, phytotoxicity rating (0-100), CASOB ([7]; 63 g ai/ha) | phytotoxicity rating ECHCG ([19]; 63 g ai/ha)
20: phytotoxicity rating SORHA ([15]; 63 g ai/ha) | phytotoxicity rating DIGSA ([17]; 63 g ai/ha)
100: Pre-emerge Herbicidal Activity, phytotoxicity rating (0-100), SORHA ([3]; 250 g ai/ha) | Pre-emerge Herbicidal Activity, phytotoxicity rating (0-100), DIGSA ([4]; 250 g ai/ha) | Pre-emerge Herbicidal Activity, phytotoxicity rating (0-100), IPOHE ([5]; 250 g ai/ha) | Pre-emerge Herbicidal Activity, phytotoxicity rating (0-100), ECHCG ([6]; 250 g ai/ha) | Pre-emerge Herbicidal Activity, phytotoxicity rating (0-100), CASOB ([7]; 250 g ai/ha) | Pre-emerge Herbicidal Activity, phytotoxicity rating (0-100), SETVI ([8]; 250 g ai/ha) | Pre-emerge Herbicidal Activity, phytotoxicity rating (0-100), ABUTH ([9]; 63 g ai/ha) | Pre-emerge Herbicidal Activity, phytotoxicity rating (0-100), ABUTH ([9]; 250 g ai/ha) | Pre-emerge Herbicidal Activity, phytotoxicity rating (0-100), CHEAL ([10]; 63 g ai/ha) | Pre-emerge Herbicidal Activity, phytotoxicity rating (0-100), CHEAL ([10]; 250 g ai/ha) | Pre-emerge Herbicidal Activity, phytotoxicity rating (0-100), AMBEL ([11]; 250 g ai/ha) | Pre-emerge Herbicidal Activity, phytotoxicity rating (0-100), AMARE ([14]; 63 g ai/ha) | Pre-emerge Herbicidal Activity, phytotoxicity rating (0-100), AMARE ([14]; 250 g ai/ha) | phytotoxicity rating AMARE ([16]; 63 g ai/ha) | phytotoxicity rating AMARE ([16]; 250 g ai/ha) | phytotoxicity rating IPOHE ([18]; 63 g ai/ha) | phytotoxicity rating IPOHE ([18]; 250 g ai/ha) | phytotoxicity rating CASOB ([20]; 63 g ai/ha) | phytotoxicity rating CASOB ([20]; 250 g ai/ha) | phytotoxicity rating ABUTH ([22]; 63 g ai/ha) | phytotoxicity rating ABUTH ([22]; 250 g ai/ha) | phytotoxicity rating CHEAL ([23]; 63 g ai/ha) | phytotoxicity rating CHEAL ([23]; 250 g ai/ha) | phytotoxicity rating AMBEL ([24]; 63 g ai/ha)
60: phytotoxicity rating RICE ([2]; 63 g ai/ha) | phytotoxicity rating SETVI ([21]; 63 g ai/ha)
95: Pre-emerge phytotoxicity rating (0-100), crop damage, CORN ([12]; 250 g ai/ha) | Pre-emerge phytotoxicity rating (0-100), crop damage, RICE ([13]; 250 g ai/ha) | phytotoxicity rating AMBEL ([24]; 250 g ai/ha)

COc1ccc(C(=O)Nc2c(OC)c(Cl)cc(F)c2-n2c(=O)cc(C(F)(F)F)n(C)c2=O)cc1 [2-63]
0: phytotoxicity rating DIGSA ([17]; 63 g ai/ha)
10: phytotoxicity rating ECHCG ([19]; 63 g ai/ha)
70: phytotoxicity rating RICE ([2]; 63 g ai/ha) | phytotoxicity rating DIGSA ([17]; 250 g ai/ha)
99: phytotoxicity rating CHEAL ([23]; 63 g ai/ha)
20: phytotoxicity rating SORHA ([15]; 63 g ai/ha)
90: Pre-emerge Herbicidal Activity, phytotoxicity rating (0-100), SORHA ([3]; 63 g ai/ha)
95: phytotoxicity rating CORN ([1]; 250 g ai/ha) | phytotoxicity rating RICE ([2]; 250 g ai/ha) | Pre-emerge Herbicidal Activity, phytotoxicity rating (0-100), ECHCG ([6]; 63 g ai/ha) | Pre-emerge phytotoxicity rating (0-100), crop damage, RICE ([13]; 63 g ai/ha) | phytotoxicity rating SETVI ([21]; 250 g ai/ha)
80: phytotoxicity rating AMBEL ([24]; 63 g ai/ha)
60: Pre-emerge phytotoxicity rating (0-100), crop damage, CORN ([12]; 63 g ai/ha)
100: Pre-emerge Herbicidal Activity, phytotoxicity rating (0-100), SORHA ([3]; 250 g ai/ha) | Pre-emerge Herbicidal Activity, phytotoxicity rating (0-100), DIGSA ([4]; 63 g ai/ha) | Pre-emerge Herbicidal Activity, phytotoxicity rating (0-100), DIGSA ([4]; 250 g ai/ha) | Pre-emerge Herbicidal Activity, phytotoxicity rating (0-100), IPOHE ([5]; 63 g ai/ha) | Pre-emerge Herbicidal Activity, phytotoxicity rating (0-100), IPOHE ([5]; 250 g ai/ha) | Pre-emerge Herbicidal Activity, phytotoxicity rating (0-100), ECHCG ([6]; 250 g ai/ha) | Pre-emerge Herbicidal Activity, phytotoxicity rating (0-100), CASOB ([7]; 63 g ai/ha) | Pre-emerge Herbicidal Activity, phytotoxicity rating (0-100), CASOB ([7]; 250 g ai/ha) | Pre-emerge Herbicidal Activity, phytotoxicity rating (0-100), SETVI ([8]; 63 g ai/ha) | Pre-emerge Herbicidal Activity, phytotoxicity rating (0-100), SETVI ([8]; 250 g ai/ha) | Pre-emerge Herbicidal Activity, phytotoxicity rating (0-100), ABUTH ([9]; 63 g ai/ha) | Pre-emerge Herbicidal Activity, phytotoxicity rating (0-100), ABUTH ([9]; 250 g ai/ha) | Pre-emerge Herbicidal Activity, phytotoxicity rating (0-100), CHEAL ([10]; 63 g ai/ha) | Pre-emerge Herbicidal Activity, phytotoxicity rating (0-100), CHEAL ([10]; 250 g ai/ha) | Pre-emerge Herbicidal Activity, phytotoxicity rating (0-100), AMBEL ([11]; 63 g ai/ha) | Pre-emerge Herbicidal Activity, phytotoxicity rating (0-100), AMBEL ([11]; 250 g ai/ha) | Pre-emerge phytotoxicity rating (0-100), crop damage, CORN ([12]; 250 g ai/ha) | Pre-emerge phytotoxicity rating (0-100), crop damage, RICE ([13]; 250 g ai/ha) | Pre-emerge Herbicidal Activity, phytotoxicity rating (0-100), AMARE ([14]; 63 g ai/ha) | Pre-emerge Herbicidal Activity, phytotoxicity rating (0-100), AMARE ([14]; 250 g ai/ha) | phytotoxicity rating SORHA ([15]; 250 g ai/ha) | phytotoxicity rating AMARE ([16]; 63 g ai/ha) | phytotoxicity rating AMARE ([16]; 250 g ai/ha) | phytotoxicity rating IPOHE ([18]; 63 g ai/ha) | phytotoxicity rating IPOHE ([18]; 250 g ai/ha) | phytotoxicity rating ECHCG ([19]; 250 g ai/ha) | phytotoxicity rating CASOB ([20]; 63 g ai/ha) | phytotoxicity rating CASOB ([20]; 250 g ai/ha) | phytotoxicity rating ABUTH ([22]; 63 g ai/ha) | phytotoxicity rating ABUTH ([22]; 250 g ai/ha) | phytotoxicity rating CHEAL ([23]; 250 g ai/ha) | phytotoxicity rating AMBEL ([24]; 250 g ai/ha)
50: phytotoxicity rating CORN ([1]; 63 g ai/ha) | phytotoxicity rating SETVI ([21]; 63 g ai/ha)
